Consider 17 compounds from patent US20240190821A1, “SULFONAMIDE SUBSTITUTED N-(1H-INDOL-7-YL)BENZENESULFONAMIDES AND USES THEREOF” (Triana Biomedicines, Inc., priority 2021, published 2024).

SMILES strings stand for the structures. pEC50, pIC50: −log10 of the molar value. Where two headings read alike, the source gives them in different places.

Test [1] has as its target T1, DCAF15-RBM39 ternary complex (Homo sapiens, UniProt Q14498+Q66K64).
T1 construct: (RRM2)
Nature of the test: Compound-induced DCAF15-RBM39 ternary complex formation, AlphaLISA. The following applies: AlphaLISA, His-tagged DCAF15 complex and biotin-carrying RBM39; read-out: Ternary-RBM39 (RRM2) EC50. Format: biochemical. The method, boiled down: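 Protein mixture incubated with compounds for one hour at room temperature; AlphaLISA beads then added sequentially, 1-2 h at room temperature after each. No-compound wells served as negative controls; His-tagged biotinylated GST tracked assay performance.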

The target in the next test is T2, RBM39 (Homo sapiens, UniProt Q14498+Q66K64).
T2 construct: endogenous in cells; host or cells: HCT116
Nature of the test: Western blot assay for degradation of RBM39 in HCT116 cells. Particulars: HCT116, 4 h. Format: cell-based. The method, then:
Example 107: Western Blot Assay Procedure for Assessing Degradation of RBM39 in HCT116 Cells
HCT116 cells were used with passage numbers ranging from 13 to 25. Cells were seeded in 12-well plated at a density of 1 million cells per well in 1 mL cell culture medium containing McCoy's 5A medium (Cat. #16600082, ThermoFisher, Waltham, MA), 10% Fetal Bovine Serum (Cat. #26140, ThermoFisher, Waltham, MA) and 1% Pen-Strep (Cat. #. 15070063, ThermoFisher, Waltham, MA) and incubated overnight. The next morning, compounds were serially diluted (1:3, 9 points) in the medium separately and were prepared 2× the final assay concentration. Subsequently, 1.0 mL medium containing DMSO or the appropriate concentration of each compound was added to respective wells. The final DMSO concentration in each well was 0.1%. […] Cells were then washed once with 1 mL of ice cold Dulbecco's phosphate-buffered saline (Cat. #28374, ThermoFisher, Waltham, MA) and then lysed with 100 μl of lysis buffer containing 1× RIPA (Cat. #. 89900, ThermoFisher, Waltham, MA) and HALT protease and phosphatase inhibitor (Cat. #78442, ThermoFisher, Waltham, MA) on ice for 10 minutes with intermittent rocking. Lysates were then sonicated in a sonication bath (3 pulses of 10 sec each with 1 min incubation on ice between each pulse). Samples were then centrifuged for 20 min at 14,000 rpm for 20 min. Supernatants were then transferred to fresh microfuge tubes and stored frozen at −80° C. until use. Total protein quantitation in lysate samples was done using the BCA protein quantitation kit following the manufacturer's instructions. For polyacrylamide gel electrophoresis, each sample ([…] total protein), was diluted with Laemmli sample buffer (Cat. #. 1610747, BioRad, Hercules, CA) by adding 9 ul of lysate to 3 ul of sample buffer containing 10% β-mercaptoethanol. Samples were then denatured at 95° C. for 5 minutes in a heat block, centrifuged at 14,000 rpm for 5 min, and placed on ice. Subsequently, 12 ul of each sample was loaded on 4-20% Tris/Glycine gels and electrophoresed in 1×Tris/Glycine SDS buffer at 80 (constant) volts for 2 h. Resolved samples were then transferred from gels to PVDF membrane using the BioRad Turbo-transfer unit with the Turbo default program (Cat. #. 1704150EDU, BioRad, Hercules, CA). For immunoblotting, membranes were first blocked for 1 hour at room temperature using Odyssey Blocking Buffer (Cat. #: 927-60001, Li-cor, Lincoln, NE) with continuous rocking. Membrane was then incubated with primary antibodies, anti-RBM39 (Sigma Cat. #: HPA001591, St. Louis, MO) and anti-β-actin (Cell Signaling Cat. #3700S, Danvers, MA), diluted 1000 fold each, at 4° C. for overnight. Subsequently, membrane was washed three times for at room temperature with continuous rocking (5 minutes each wash) using TBS buffer containing 0.1% Tween-20. After the final wash, secondary antibodies, IRDye 680 RD Goat anti Mouse IgG H+L (Cat. #: 926-68070, Li-cor, Lincoln, NE), and IRDye 800CW Goat anti Rabbit IgG H+L (Cat. #: 926-32211, Li-cor, Lincoln, NE), each diluted 10,000-fold, were added to the membranes and incubated at room temperature for 1 h with continuous rocking. Membranes were then washed 3 times with 1×TBS and scanned using Odessey CLx imaging system (Li-cor, Lincoln, NE) using default settings. Band intensity in images was quantified using the Image Studio Lite software (Version 5.2). Signal intensity for RBM-39 specific bands were normalized using the signal intensity for β-actin-specific band, and percent degradation was assessed by comparing RBM39 signal in compound-treated vs. DMSO-treated samples.

For the next test, the target named is DCAF15 (Homo sapiens, UniProt Q66K64). Nature of the test: Binary interaction between compounds and DCAF15, HTRF competition assay. Format: binding. The following applies: HTRF competition with Alexa Fluor 647 tracer, His-tagged DCAF15 complex; read-out: DCAF15 IC50. The method, boiled down: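 HTRF competition format: DCAF15 premixed 15 min at room temperature with anti-6His-Eu cryptate antibody, then combined with tracer and compound. Binding derived from ratiometric signal with titration curves; no-DCAF15 wells as controls.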
Chain of DCAF15 (Q66K64 whole entry): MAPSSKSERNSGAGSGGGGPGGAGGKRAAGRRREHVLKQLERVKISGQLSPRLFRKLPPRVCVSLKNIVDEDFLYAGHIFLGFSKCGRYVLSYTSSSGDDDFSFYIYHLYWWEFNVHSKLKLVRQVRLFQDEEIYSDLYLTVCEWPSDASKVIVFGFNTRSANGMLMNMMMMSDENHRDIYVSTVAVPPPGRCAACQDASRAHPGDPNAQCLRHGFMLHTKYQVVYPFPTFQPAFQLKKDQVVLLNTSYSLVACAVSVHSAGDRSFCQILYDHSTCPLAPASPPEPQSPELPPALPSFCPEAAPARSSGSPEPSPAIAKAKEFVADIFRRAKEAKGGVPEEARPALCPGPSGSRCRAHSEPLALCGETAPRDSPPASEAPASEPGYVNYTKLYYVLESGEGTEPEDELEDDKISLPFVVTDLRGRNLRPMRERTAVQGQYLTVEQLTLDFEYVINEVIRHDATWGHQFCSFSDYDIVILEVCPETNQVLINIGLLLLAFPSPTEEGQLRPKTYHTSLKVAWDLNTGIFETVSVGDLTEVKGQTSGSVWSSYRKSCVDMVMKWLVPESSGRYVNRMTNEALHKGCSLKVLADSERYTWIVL
Chain of DCAF15 (Q16531 whole entry partner): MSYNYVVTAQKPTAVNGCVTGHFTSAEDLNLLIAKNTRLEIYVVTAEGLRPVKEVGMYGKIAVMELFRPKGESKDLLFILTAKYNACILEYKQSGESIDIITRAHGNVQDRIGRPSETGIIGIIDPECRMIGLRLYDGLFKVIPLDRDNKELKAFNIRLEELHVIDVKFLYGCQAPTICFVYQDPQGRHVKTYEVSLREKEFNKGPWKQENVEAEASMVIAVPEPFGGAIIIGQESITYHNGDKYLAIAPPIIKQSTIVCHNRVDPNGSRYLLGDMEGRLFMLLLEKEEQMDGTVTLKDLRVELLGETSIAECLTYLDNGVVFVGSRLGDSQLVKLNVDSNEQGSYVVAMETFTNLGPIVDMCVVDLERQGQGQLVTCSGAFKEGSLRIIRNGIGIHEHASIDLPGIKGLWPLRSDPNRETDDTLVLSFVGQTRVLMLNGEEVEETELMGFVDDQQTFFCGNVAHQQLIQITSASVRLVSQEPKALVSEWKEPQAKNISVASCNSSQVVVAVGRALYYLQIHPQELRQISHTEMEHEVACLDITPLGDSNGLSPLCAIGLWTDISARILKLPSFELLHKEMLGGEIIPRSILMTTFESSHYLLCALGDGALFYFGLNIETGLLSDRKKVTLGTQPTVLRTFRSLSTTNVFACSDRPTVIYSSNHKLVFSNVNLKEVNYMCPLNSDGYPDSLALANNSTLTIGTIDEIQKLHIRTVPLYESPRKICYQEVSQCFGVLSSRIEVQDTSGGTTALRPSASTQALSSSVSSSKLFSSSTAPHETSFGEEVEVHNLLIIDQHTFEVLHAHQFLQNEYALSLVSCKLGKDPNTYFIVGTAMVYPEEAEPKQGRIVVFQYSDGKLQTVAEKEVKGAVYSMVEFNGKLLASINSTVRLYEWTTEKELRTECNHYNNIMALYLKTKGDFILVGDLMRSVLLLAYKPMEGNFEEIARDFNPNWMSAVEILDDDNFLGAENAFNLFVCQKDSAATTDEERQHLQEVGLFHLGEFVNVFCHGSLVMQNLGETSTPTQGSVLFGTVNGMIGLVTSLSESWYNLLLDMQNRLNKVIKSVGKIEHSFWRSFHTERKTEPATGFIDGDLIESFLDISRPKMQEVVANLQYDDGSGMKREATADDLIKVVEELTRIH

The test system of the next test is HCT116 cells. Nature of the test: HCT116 cell viability using CellTiter-Glo. Format: cell-based. Particulars: read-out: 3-Day CTG IC50 in HCT116. The method, then: Example 108: Measurement of HCT116 Cell Viability Using CellTiter-Glo
HCT116 cells with the passage number ranging from 13 to 25 were plated in an opaque-walled 384 well plate (Corning, Cat. #3765, Corning, NY) at a density of 1000 cells/well in 50 μl medium containing McCoy's 5A medium (Cat. #16600082, ThermoFisher, Waltham, MA), 10% Fetal Bovine Serum (Cat. #26140, ThermoFisher, Waltham, MA) and 1% Pen-Strep (Cat. #. 15070063, ThermoFisher, Waltham, MA). After overnight incubation, cells were treated with various concentrations of compounds (0-10 μM) in DMSO (final concentration of 0.2% DMSO) for 72 h. CellTiter-Glo® Reagent (Cat. #G7573, Promega, Waltham, MA) was then added to all wells. The plates were placed on an orbital shaker to mix the content and induce cell lysis. The plates were then incubated at room temperature for 10 minutes to stabilize luminescent signal. The luminescence was recorded using Envision multilabel plate reader (Perkin-Elmers, Waltham, MA) and the data was fit by using Excel-fit (Microsoft, Redmond, WA).

[2] abbreviates: Homo sapiens, HCT-116, HCT116, 72 h.

T1 sequence (Q66K64 whole entry): as the sequence (Q66K64 whole entry) above
T1 sequence (Q14498 250-328 limits assumed): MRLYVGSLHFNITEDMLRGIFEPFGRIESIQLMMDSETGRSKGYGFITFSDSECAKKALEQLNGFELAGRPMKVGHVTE
T1 sequence (Q16531 whole entry partner): as the sequence (Q16531 whole entry partner) above

For `N#Cc1cccc(S(=O)(=O)Nc2ccc(Cl)c3c(Cl)c[nH]c23)c1` [Compound 74, 3-cyano-N-(3,4-dichloro-1H-indol-7-yl)benzenesulfonamide], the pEC50 in test [1] was more than 6.00. Besides, the DC50 on RBM39 was less than 100 nM.

In the case of `Cc1ccc(NS(=O)(=O)c2cccc(-n3ccnn3)c2)c2[nH]cc(C#N)c12` [Compound 96, N-(3-cyano-4-methyl-1H-indol-7-yl)-3-(1H-1,2,3-triazol-1-yl)benzenesulfonamide], the pEC50 in test [1] was more than 6.00. Further, the pIC50 at DCAF15 is more than 4.70. This compound registered a DC50 at RBM39 of less than 100 nM.

Take `Cc1ccc(NS(=O)(=O)c2cc(F)cc(C#N)c2)c2[nH]cc(C(F)F)c12` [Compound 101, 3-cyano-N-(3-(difluoromethyl)-4-methyl-1H-indol-7-yl)-5-fluorobenzene sulfonamide]: the pEC50 in test [1] was more than 5.30. For the same compound, the pIC50 is more than 4.00 at DCAF15 and more than 6.00 with HCT116 cells (setting [2]).

In the case of `NCCCCCCCNS(=O)(=O)c1ccc(S(=O)(=O)Nc2ccc(Cl)c3c(Cl)c[nH]c23)cc1` [Compound 8, N^1-(7-aminoheptyl)-N^4-(3,4-dichloro-1H-indol-7-yl)benzene-1,4-disulfonamide], in test [1], the pEC50 was more than 6.00. The compound further displayed a DC50 at RBM39 of less than 1000 nM.

For the compound `COCCNS(=O)(=O)c1ccc(S(=O)(=O)Nc2ccc(Cl)c3c(Cl)c[nH]c23)cc1` [Compound 2, N^1-(3,4-dichloro-1H-indol-7-yl)-N^4-(2-methoxyethyl)benzene-1,4-disulfonamide], in test [1], the pEC50 was more than 6.00. Moreover, the pIC50 with HCT116 cells (setting [2]) was more than 6.00.

As for `Cc1ccc(NS(=O)(=O)c2cccc(C#N)c2)c2[nH]cc(C#N)c12` [Compound E-7820, E-7820, reference compound], the pIC50 with HCT116 cells (setting [2]) is more than 6.00.

`Cc1ccc(NS(=O)(=O)c2cccc(C#N)c2)c2[nH]cc(C(F)F)c12` [Compound 100, 3-cyano-N-(3-(difluoromethyl)-4-methyl-1H-indol-7-yl)benzenesulfonamide]: the negative logarithm of the EC50 (pEC50) in test [1] was more than 5.30. Besides, in the test with HCT116 cells (setting [2]), the pIC50 was more than 6.00.

Consider `O=S(=O)(Nc1ccc(Cl)c2c(Cl)c[nH]c12)c1ccc(S(=O)(=O)N2CCNCC2)cc1` [Compound 42, N-(3,4-dichloro-1H-indol-7-yl)-4-(piperazin-1-ylsulfonyl)benzenesulfonamide], for which the pEC50 in test [1] is more than 6.00. At RBM39, this compound returned a DC50 of less than 1000 nM. Besides, the pIC50 with HCT116 cells (setting [2]) is more than 7.00.

`NS(=O)(=O)c1ccc(S(=O)(=O)Nc2cccc3c(Cl)c[nH]c23)cc1` [Indisulam, indisulam, reference compound]: the pEC50 in test [1] was more than 6.00. In the test on HCT116 cells (setting [2]), the pIC50 is more than 6.00.

Take `Cc1ccc(NS(=O)(=O)c2ccc(S(=O)(=O)N3CCN(C4COC4)CC3)cc2)c2[nH]cc(C#N)c12` [Compound 86, N-(3-cyano-4-methyl-1H-indol-7-yl)-4-((4-(oxetan-3-yl)piperazin-1-yl)sulfonyl)benzenesulfonamide]: in test [1], the pEC50 is more than 6.00. Moreover, the pIC50 at DCAF15 is more than 4.70.

Turning to `Cc1ccc(NS(=O)(=O)c2ccc(-n3ccnn3)cc2)c2[nH]cc(C#N)c12` [Compound 95, N-(3-cyano-4-methyl-1H-indol-7-yl)-4-(1H-1,2,3-triazol-1-yl)benzenesulfonamide], in test [1], the pEC50 is more than 6.00. Also, the DC50 on RBM39 is less than 100 nM.

Turning to `Cc1ccc(NS(=O)(=O)c2ccc(S(=O)(=O)N3CCC(N)CC3)cc2)c2[nH]cc(C#N)c12` [Compound 81, 4-((4-aminopiperidin-1-yl)sulfonyl)-N-(3-cyano-4-methyl-1H-indol-7-yl) benzenesulfonamide], the pEC50 in test [1] was more than 6.00. In addition, on DCAF15, the pIC50 is more than 5.30.

With `N#Cc1cccc(S(=O)(=O)Nc2ccc(I)c3c(Cl)c[nH]c23)c1` [Compound 102, N-(3-chloro-4-iodo-1H-indol-7-yl)-3-cyanobenzenesulfonamide], the pEC50 in test [1] was more than 5.30. For the same compound, the pIC50 at DCAF15 was more than 4.00.

Consider `COC(=O)CNS(=O)(=O)c1ccc(S(=O)(=O)Nc2ccc(Cl)c3c(Cl)c[nH]c23)cc1` [Compound 1, methyl ((4-(N-(3,4-dichloro-1H-indol-7-yl)sulfamoyl)phenyl)sulfonyl) glycinate], for which the pEC50 in test [1] was more than 6.00. Besides, the pIC50 at DCAF15 is more than 4.00; in the test on HCT116 cells (setting [2]), more than 6.00. In addition, the DC50 on RBM39 is less than 1000 nM.

For the compound `O=S(=O)(Nc1ccc(Cl)c2c(Cl)c[nH]c12)c1ccc(S(=O)(=O)N2CCC(n3ccnn3)C2)cc1` (stereo not drawn) [Compound 36, 4-((3-(1H-1,2,3-triazol-1-yl)pyrrolidin-1-yl)sulfonyl)-N-(3,4-dichloro-1H-indol-7-yl)benzenesulfonamide], the pEC50 in test [1] is more than 5.30. The pIC50 on DCAF15 was more than 5.30.

For the compound `O=C1NCCCCC1NS(=O)(=O)c1ccc(S(=O)(=O)Nc2ccc(Cl)c3c(Cl)c[nH]c23)cc1` (stereo not drawn) [Compound 33, N^1-(3,4-dichloro-1H-indol-7-yl)-N^4-(2-oxoazepan-3-yl)benzene-1,4-disulfonamide], in test [1], the pEC50 is more than 6.00. Also, the pIC50 at DCAF15 was more than 5.30.

Take `Nc1ccc(S(=O)(=O)Nc2cnc3c(Cl)cccc3n2)cc1` [CQS, cloroquinoxaline sulfonamide, reference compound]: the pEC50 in test [1] is more than 5.30. Further, the half-maximal degradation concentration (DC50) on RBM39 is less than 100 nM. In the test with HCT116 cells (HCT116, 72 h), the pIC50 was more than 5.30.
